Data set [1] deals with alkaline phosphatase. Kind of data set: Stability test in alkaline aqueous solution in the presence of alkaline phosphatase (enzyme hydrolysis), HPLC-MS. The settings on record: for resistance to hydrolysis: in words, summary of Table 1; for Percentage of non-hydrolysed compound: 2 mM, pH 8 TRIS-HCl buffer, alkaline phosphatase, ambient temperature. How it is done:
The following compounds were selected for the stability tests in alkaline aqueous solution in the presence of alkaline phosphatase (SIGMA Phosphatase, alkaline-Agarose from calf intestine-P0762): [drawing 25] • Solution A: • pH 8 solution: TRIS-HCl buffer and 2 mM of MgCl2; • Solution B: • comparison versus solution A: 2 mM isopentenyl pyrophosphate (IPP) solution; • Solution C: • 2 mM isopentenyl thiopyrophosphate solution (Compound 8) of this invention into Solution A, • Solution D: • Solution of phosphatase enzyme immobilised on a solid substrate (agarose), 50 biological units into 10 ml of Solution A.
20 µl of Solution D were added to 0.5 ml of Solution B. The system was allowed to stand at ambient temperature under stirring. The solution was filtered to remove the enzyme and it was then analysed with HPLC-MS at predetermined time intervals (20, 30, 40, 50 and 60 minutes).
The same procedure was carried out with Solution C.

The test system of data set [2] is γδ T lymphocytes of peripheral blood mononucleate cells (PBMCs). Kind of data set: Cytokine production assay on peripheral blood mononucleate cells (PBMCs), cytofluorimetry. It counts as cell-based, human. The note with it: for activation at 10 µM / activation at 100 µM / activation at 1000 µM: Homo sapiens, PBMC, read-out: % increase in γδ T lymphocytes producing TNFα; for % increase in γδ T lymphocytes producing INFγ: IPP (10 µM) std = 100. How it is done:
γδ T lymphocyte activation was tested by an assay involving the production of cytokines such as TNFα and IFNγ by the γδ T lymphocytes of peripheral blood mononucleate cells (PBMCs) from healthy donors (Poccia, F. et al., The Journal of Immunology 1997, 159, 6009-6017).
Mononucleate cells (PBMCs) were isolated from the peripheral blood of healthy donors, cultured at 37°C on a complete medium comprising RPMI 1640, 10% FCS, 1% L-glutamine, 1% penicillin-streptomycin in the presence of interleukin 2 (IL-2), T lymphocyte growth factor, and 5% CO2 in a controlled humidity environment, and then stimulated with isopentenyl pyrophosphate (IPP 10 µM) as a positive activation control and with various doses (10 µM, 100 µM) and 1000 µM) of compounds according to the invention, respectively.
Then it was performed a cytofluorimetric labelling using specific monoclonal antibodies (membrane labelling for the expansion and intra-cytoplasm labelling for the cytokines) and a cytofluorimetric measurement in order to establish the percentage of γδ T cells producing TNFα and IFNγ (cytokine production assay).

Data set [3] has as its system γδ T lymphocyte line. Kind of data set: ELISA test for the production of TNFα in the γδ T lymphocyte line. The format is cell-based, human. The settings on record: for EC50: Homo sapiens, T-lymphocyte, 24 h. As for the experimental part: A buffy coat from a healthy donor with a high basal percentage of γδ T lymphocytes (approximately 6%) was selected for growth of the γδ T lymphocyte lines.
The PBMCs were separated out and cultured at a concentration of 1 x 10^6 cells/ml in the presence of IPP (160 ng/ml) and IL-2 (100 U/ml).
After 7 days incubation at 37°C with 5% CO2, 3 ml of medium were sampled and replaced with the same amount of fresh medium ennched with IL-2 (final concentration 100 U/ml).
After a further 7 days in the incubator an aliquot of the cultured cells was taken to label the membrane and measure the percentage of γδ T cells obtained from the expansion.
This cell line was then used to evaluate the production of TNFα following stimulation of the cells with the compounds under investigation, using an ELISA test.
In the ELISA test there were used cells from the line produced as disclosed above in a concentration of 2.5 x 10^5 cells/ml (5 x 10^4 cells/well).
The cells were then stimulated with the compounds under investigation and with isopentenyl pyrophosphate (IPP) as a reference at scalar doses.
After 24 hours the supernatants from the wells containing the stimulated cells were sampled and the ELISA test was carried out using the "Human TNFα Screening Set" kit (Endogen). The kit provides for treatment with an anti-TNFα biotinylate polyclonal antibody, the addition of peroxidase conjugated with streptavidine and quantitative determination using a chromogenic substrate. The plates were read spectrophotometrically at 450 nm.
Each compound was tested in duplicate.

The test system of data set [4] is Vγ9Vδ2 cells. Kind of data set: Peripheral blood mononucleate cell (PBMC) cellular expansion assay. The settings on record: tenth day of culture. The format is cell-based, human. How it is done: The effect of the compounds of this invention on the expansion of γδ T lymphocytes was investigated through an assay carried out on γδ T lymphocytes originating from the peripheral blood mononucleate cells from healthy donors (PBMCs).
The PBMCs were separated by centrifuging (Ficoll) on whole blood from samples (residual samples) from 7 healthy donors.
In control experiments the cells were treated with IPP at the same concentrations and under the same Experimental conditions.
On the tenth day of culture the cells were recovered and counted by means of a living count with Trypan Blue, and labelled with the same anti-Vd2-FITC antibody, and finally tested by cytofluorimetry to evaluate the percentage of Vγ9Vδ2 cells.
The absolute number of Vγ9Vδ2 cells was calculated using the following formula: No. of Vγ9Vδ2 cells = (total absolute no.of cells after expansion x%of Vγ9Vδ2cells after expansion)/100. [formula]

Counter-ions that a name gives are not always drawn.

As usually defined, the EC50 is the concentration that produces a half-maximal response. High values mean a less potent agent, low ones a more potent agent. `C=C(C)CCSP(=O)(O)OP(=O)(O)O` [Compound 8, S-(3-methyl-3-butenyl)ester of the triammonium salt of thiodiphosphoric acid]: the resistance to hydrolysis entry in data set [1] was “very much more resistant to hydrolysis”. In addition, the “Percentage of non-hydrolysed compound” value is reported as 100% in data set [1] (t = 0 min); 90% in data set [1] (t = 20 min); 90% in data set [1] (t = 30 min); 90% in data set [1] (t = 40 min); 90% in data set [1] (t = 50 min); 90% in data set [1] (t = 60 min). The activation at 10 µM in data set [2] was determined as 39%. The activation at 100 µM in data set [2] came to 92.6%. In addition, the activation at 1000 µM in data set [2] turned out to be 174%. Also, the “% increase in γδ T lymphocytes producing INFγ” value in data set [2] (PBMC/IL-2, 10 µM) came to 21%; in data set [2] (PBMC/IL-2, 100 µM), 865%; in data set [2] (PBMC/IL-2, 1000 µM), 182%. In data set [3], this compound came in with an EC50 of 3.75 µM.

Turning to `O=P(O)(O)OP(=O)(O)SCCCCCl` [Compound 1, S-(4-chlorobutyl) ester of the trisodium salt of thiodiphosphoric acid], in data set [2], the activation at 10 µM is 81%, the activation at 100 µM came to 127% and the activation at 1000 µM amounted to 81.5%. Further, the “% increase in γδ T lymphocytes producing INFγ” value in data set [2] (PBMC/IL-2, 10 µM) is 131%. In data set [2] (PBMC/IL-2, 100 µM), the “% increase in γδ T lymphocytes producing INFγ” value is reported as 94%. For the same compound, the “% increase in γδ T lymphocytes producing INFγ” value in data set [2] (PBMC/IL-2, 1000 µM) is recorded as 132%. The same compound gave an EC50 in data set [3] of 100 µM.

On to `C[C@H](O)CCSP(=O)(O)OP(=O)(O)O` [Compound 6, S-(3-hydroxybutyl)ester of the trisodium salt of biodiphosphoric acid], for which, in data set [2], the activation at 10 µM turned out to be 40%, the activation at 100 µM amounted to 114% and the activation at 1000 µM was found to be 310%. Also, in data set [3], the EC50 was 75 µM.

With `O=P(O)(O)OP(=O)(O)SCCC1CC1` [Compound 3, S-(2-cyclopropylethyl)ester of the trisodium salt of thiodiphosphoric acid], in data set [2], the activation at 10 µM came to 495%, the activation at 100 µM came to 123% and the activation at 1000 µM stood at 158%. In addition, in data set [3], the concentration giving a half-maximal response (EC50) is 13 µM.

For `C/C(=C\CSP(=O)(O)OP(=O)(O)O)CO` [Compound 9, S-[(E)-4-hydroxy-3-methyl-2-butenyl]ester of the trisodium salt of thiodiphosphoric acid], the “Expansion Index” value worked out at 129.28 in data set [4] (Donor A); 80.96 in data set [4] (Donor B); 5.30 in data set [4] (Donor C); 59.10 in data set [4] (Donor D); 624.02 in data set [4] (Donor E); 35.37 in data set [4] (Donor F). The “Expansion Index” value in data set [4] (Donor G) turned out to be 42.09. For the same compound, in data set [2], the activation at 10 µM was 82.3%. Also, the activation at 100 µM in data set [2] was determined as 175%. For the same compound, the activation at 1000 µM in data set [2] is 464%. In data set [2] (in words, at 100 and 1000 µM), the “activity (γδ T cells producing cytokines)” value is recorded as “a very clear increase”. Also, the EC50 in data set [3] was found to be 0.0048 µM. Moreover, the “EC50 relative to the EC50 for IPP” value in data set [3] (production of TNFα, γδ T lymphocyte line) was 1000 times.

`C=C(C)CCO[P@@](=O)(O)OP(=O)(O)O` [IPP, isopentenyl pyrophosphate, reference compound]: the resistance to hydrolysis entry in data set [1] is given as “degrades rapidly”. Besides, the “Percentage of non-hydrolysed compound” value in data set [1] (t = 0 min) is on record as 94%; in data set [1] (t = 20 min), 48%; in data set [1] (t = 30 min) it was 54%; in data set [1] (t = 60 min), 27%. The activation at 10 µM in data set [2] was 100%. Besides, the “% increase in γδ T lymphocytes producing INFγ” value in data set [2] (PBMC/IL-2, 10 µM) amounted to 100%.

On to `C=CCOCCSP(=O)(O)OP(=O)(O)O` [Compound 4, S-[2-(allyloxy)ethyl]ester of the trisodium salt of thiodiphosphoric acid], for which, in data set [2], the activation at 10 µM stood at 70.7%, the activation at 100 µM was found to be 130% and the activation at 1000 µM was determined as 299%. Besides, in data set [3], a half-maximal effect (EC50) was put at 10 µM.

Take `O=P(O)(O)OP(=O)(O)SCCOCCCl` [Compound 2, S-[2-(2-chloroethoxy)ethyl] ester of the trisodium salt of thiodiphosphoric acid]: the activation at 10 µM in data set [2] was found to be 60.4%. Besides, the activation at 100 µM in data set [2] stood at 71.8%. Moreover, the activation at 1000 µM in data set [2] came out at 765%. Besides, the “% increase in γδ T lymphocytes producing INFγ” value is 56.4% in data set [2] (PBMC/IL-2, 10 µM); 67% in data set [2] (PBMC/IL-2, 100 µM); 97.3% in data set [2] (PBMC/IL-2, 1000 µM). In data set [3], this compound came in with an EC50 of 0.39 µM.

The record behind these values is patent EP1991554B1, “THIOPYR[…] COMPOUNDS, METHOD FOR PREPARING THEREOF AND COMPOSITIONS CONTAINING THEM” (C4T S.C. a.r.l., priority 2006, dated 2007).
